Target: Sodium-dependent noradrenaline transporter (Homo sapiens, UniProt P23975)
Assay: Compound was tested for its ability to inhibit the uptake of Norepinephrine in Norepinephrine transporter system
Format: functional

Sequence of Sodium-dependent noradrenaline transporter (P23975 whole entry): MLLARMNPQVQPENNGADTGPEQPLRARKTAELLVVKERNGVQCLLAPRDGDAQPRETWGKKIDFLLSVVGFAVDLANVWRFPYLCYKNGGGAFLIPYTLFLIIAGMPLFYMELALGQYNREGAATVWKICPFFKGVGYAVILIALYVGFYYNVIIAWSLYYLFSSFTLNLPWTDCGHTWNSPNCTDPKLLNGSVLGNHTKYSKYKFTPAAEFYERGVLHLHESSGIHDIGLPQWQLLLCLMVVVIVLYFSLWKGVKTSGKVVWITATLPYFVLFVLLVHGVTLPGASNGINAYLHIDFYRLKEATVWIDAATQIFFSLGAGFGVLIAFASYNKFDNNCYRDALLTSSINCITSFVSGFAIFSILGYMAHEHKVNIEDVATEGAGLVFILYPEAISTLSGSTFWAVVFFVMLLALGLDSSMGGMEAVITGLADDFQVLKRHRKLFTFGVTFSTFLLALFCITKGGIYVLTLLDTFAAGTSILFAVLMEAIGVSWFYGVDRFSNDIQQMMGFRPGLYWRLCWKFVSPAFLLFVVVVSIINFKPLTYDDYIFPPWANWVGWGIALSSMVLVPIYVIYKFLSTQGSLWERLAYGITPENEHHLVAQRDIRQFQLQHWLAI

c1ccc(CCCN2CCN(CCOC(c3ccccc3)c3ccccc3)CC2)cc1
IC50: 1260 nM

From ChEMBL document CHEMBL1130734, “Design and synthesis of a biotinylated dopamine transporter ligand for the purification and labeling of dopaminergic neurons” (Bioorg Med Chem Lett, 1998)
